# Measurements published in patent US11084800B2 (Achillion Pharmaceuticals, Inc., priority 2017, dated 2021).
# pIC50: −log10 of the molar value.
# Molecular target: Human Factor D (Homo sapiens (Human), UniProt P00746)
# Test: Human Factor D Assay
# Type: biochemical
# Details: Table 6; Factor D 80 nM, substrate Z-L-Lys-SBz; read-out: IC50
# How it was run: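 Thioester substrate Z-L-Lys-SBz (100 μM) with Ellman's reagent DTNB (100 μM) reports activity of 80 nM human serum-derived enzyme, kinetically at 405 nm over 30 min. Compound preincubated 5 min, room temperature, pH 7.5 Tris/1 M NaCl; IC50 by nonlinear fit of rates.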
# Chain of Human Factor D (P00746 26-253): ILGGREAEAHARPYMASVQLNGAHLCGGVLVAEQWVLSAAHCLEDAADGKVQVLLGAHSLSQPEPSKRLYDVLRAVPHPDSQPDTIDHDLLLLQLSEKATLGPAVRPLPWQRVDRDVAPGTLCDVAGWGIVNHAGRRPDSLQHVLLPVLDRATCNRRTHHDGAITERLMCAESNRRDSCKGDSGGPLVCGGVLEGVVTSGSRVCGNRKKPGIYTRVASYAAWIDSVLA
row,SMILES,pIC50
1,"CC(=O)c1nn(CC(=O)N2[C@H](C(=O)Nc3nc(Br)c(F)cc3C)C[C@@]3(C)C[C@@H]23)c2ccc(-c3cnc(C)nc3)cc12 [Compound 178, (1R,3S,5R)-2-(2-(3-Acetyl-5-(2-methylpyrimidin-5-yl)-1H-indazol-1-yl)acetyl)-N-(6-bromo-5-fluoro-3-methylpyridin-2-yl)-5-methyl-2-azabicyclo[3.1.0]hexane-3-carboxamide]",> 6.00
2,"CC(=O)c1nn(CC(=O)N2[C@H](C(=O)Nc3nc(Br)ccc3C)C[C@@]3(C)C[C@@H]23)c2ccc(-c3cnc4cc(C)nn4c3)cc12 [Compound 180, (1R,3S,5R)-2-(2-(3-Acetyl-5-(2-methylpyrazolo[1,5-a]pyrimidin-6-yl)-1H-indazol-1-yl)acetyl)-N-(6-bromo-3-methylpyridin-2-yl)-5-methyl-2-azabicyclo[3.1.0]hexane-3-carboxamide]",> 6.00
3,"CC(=O)c1nn(CC(=O)N2[C@H](C(=O)Nc3nc(Br)c(F)cc3C)C[C@@]3(C)C[C@@H]23)c2ncc(-c3cnc(C)nc3)cc12 [Compound 182, (1R,3S,5R)-2-(2-(3-Acetyl-5-(2-methylpyrimidin-5-yl)-1H-pyrazolo[3,4-b]pyridin-1-yl)acetyl)-N-(6-bromo-5-fluoro-3-methylpyridin-2-yl)-5-methyl-2-azabicyclo[3.1.0]hexane-3-carboxamide]",> 6.00
4,"CC(=O)c1nn(CC(=O)N2C[C@H]3C[C@H]3[C@H]2C(=O)Nc2nc(Br)ccc2C)c2ncc(-c3cnc(C)nc3)cc12 [Compound 183, (1R,2S,5S)-3-(2-(3-Acetyl-5-(2-methylpyrimidin-5-yl)-1H-pyrazolo[3,4-b]pyridin-1-yl)acetyl)-N-(6-bromo-3-methylpyridin-2-yl)-3-azabicyclo[3.1.0]hexane-2-carboxamide]",> 6.00
5,"CC(=O)c1nn(CC(=O)N2[C@H](C(=O)Nc3nc(Br)ccc3C)C[C@@]3(C)C[C@@H]23)c2ccc(-c3cnc(C)nc3)nc12 [Compound 184, (1R,3S,5R)-2-(2-(3-Acetyl-5-(2-methylpyrimidin-5-yl)-1H-pyrazolo[4,3-b]pyridin-1-yl)acetyl)-N-(6-bromo-3-methylpyridin-2-yl)-5-methyl-2-azabicyclo[3.1.0]hexane-3-carboxamide]",5.00 to 6.00
6,"CC(=O)c1nn(CC(=O)N2[C@H](C(=O)Nc3nc(Br)c(F)cc3C)C[C@@]3(C)C[C@@H]23)c2ccc(-c3cnc(C)nc3)nc12 [Compound 185, (1R,3S,5R)-2-(2-(3-Acetyl-5-(2-methylpyrimidin-5-yl)-1H-pyrazolo[4,3-b]pyridin-1-yl)acetyl)-N-(6-bromo-5-fluoro-3-methylpyridin-2-yl)-5-methyl-2-azabicyclo[3.1.0]hexane-3-carboxamide]",5.00 to 6.00
7,"CC(=O)c1nn(CC(=O)N2[C@H](C(=O)Nc3nc(Br)cc(C)c3C(F)F)C[C@@]3(C)C[C@@H]23)c2ccc(-c3cnc(C)nc3)cc12 [Compound 187, (1R,3S,5R)-2-(2-(3-Acetyl-5-(2-methylpyrimidin-5-yl)-1H-indazol-1-yl)acetyl)-N-(6-bromo-3-(difluoromethyl)-4-methylpyridin-2-yl)-5-methyl-2-azabicyclo[3.1.0]hexane-3-carboxamide]",> 6.00
8,"C=CCCS(=O)(=O)N(C)C[C@@]12C[C@@H](C(=O)Nc3nc(Br)ccc3C=C)N(C(=O)Cn3nc(C(C)=O)c4cc(-c5cnc(C)nc5)ccc43)[C@@H]1C2 [Compound 188, (1R,3S,5R)-2-(2-(3-Acetyl-5-(2-methylpyrimidin-5-yl)-1H-indazol-1-yl)acetyl)-N-(6-bromo-3-vinylpyridin-2-yl)-5-((N-methylbut-3-en-1-ylsulfonamido)methyl)-2-azabicyclo[3.1.0]hexane-3-carboxamide]",> 6.00
9,"CC(=O)c1nn(CC(=O)N2[C@H](C(=O)Nc3nc(Br)ccc3CN3CCOCC3)C[C@@]3(C)C[C@@H]23)c2cnc(-c3cnc(C)nc3)cc12 [Compound 192, (1R,3S,5R)-2-(2-(3-Acetyl-5-(2-methylpyrimidin-5-yl)-1H-pyrazolo[3,4-c]pyridin-1-yl)acetyl)-N-(6-bromo-3-(morpholinomethyl)pyridin-2-yl)-5-methyl-2-azabicyclo[3.1.0]hexane-3-carboxamide]",> 6.00
10,"COc1ncc(-c2cc3c(C(C)=O)nn(CC(=O)N4[C@H](C(=O)Nc5nc(Br)ccc5C)C[C@@]5(C)C[C@@H]45)c3cn2)cn1 [Compound 193, (1R,3S,5R)-2-(2-(3-Acetyl-5-(2-methoxypyrimidin-5-yl)-1H-pyrazolo[3,4-c]pyridin-1-yl)acetyl)-N-(6-bromo-3-methylpyridin-2-yl)-5-methyl-2-azabicyclo[3.1.0]hexane-3-carboxamide]",> 6.00
11,"CC(=O)c1nn(CC(=O)N2[C@H](C(=O)Nc3nc(Br)ccc3C)C[C@@]3(C)C[C@@H]23)c2cnc(-c3cnc(N)nc3)cc12 [Compound 194, (1R,3S,5R)-2-(2-(3-Acetyl-5-(2-aminopyrimidin-5-yl)-1H-pyrazolo[3,4-c]pyridin-1-yl)acetyl)-N-(6-bromo-3-methylpyridin-2-yl)-5-methyl-2-azabicyclo[3.1.0]hexane-3-carboxamide]",> 6.00
12,"CC(=O)c1nn(CC(=O)N2[C@H](C(=O)Nc3nc(Br)c(F)cc3C)C[C@@]3(C)C[C@@H]23)c2cnc(-c3cnc(N)nc3)cc12 [Compound 195, (1R,3S,5R)-2-(2-(3-Acetyl-5-(2-aminopyrimidin-5-yl)-1H-pyrazolo[3,4-c]pyridin-1-yl)acetyl)-N-(6-bromo-5-fluoro-3-methylpyridin-2-yl)-5-methyl-2-azabicyclo[3.1.0]hexane-3-carboxamide]",> 6.00
13,"CC(=O)c1nn(CC(=O)N2[C@H](C(=O)Nc3nc(OC(F)(F)F)ccc3C)C[C@@]3(C)C[C@@H]23)c2ccc(-c3cnc(C)nc3)cc12 [Compound 196, (1R,3S,5R)-2-(2-(3-Acetyl-5-(2-methylpyrimidin-5-yl)-1H-indazol-1-yl)acetyl)-5-methyl-N-(3-methyl-6-(trifluoromethoxy)pyridin-2-yl)-2-azabicyclo[3.1.0]hexane-3-carboxamide]",> 6.00
14,"CC(=O)c1nn(CC(=O)N2[C@H](C(=O)Nc3nc(Br)ccc3C)C[C@@]3(c4cnco4)C[C@@H]23)c2ccc(-c3cnc(C)nc3)cc12 [Compound 197, (1R,3S,5S)-2-(2-(3-Acetyl-5-(2-methylpyrimidin-5-yl)-1H-indazol-1-yl)acetyl)-N-(6-bromo-3-methylpyridin-2-yl)-5-(oxazol-5-yl)-2-azabicyclo[3.1.0]hexane-3-carboxamide]",> 6.00
15,"COc1ncc(-c2cc3c(C(C)=O)nn(CC(=O)N4[C@H](C(=O)Nc5nc(Br)c(F)cc5C)C[C@@]5(C)C[C@@H]45)c3cn2)cn1 [Compound 198, (1R,3S,5R)-2-(2-(3-Acetyl-5-(2-methoxypyrimidin-5-yl)-1H-pyrazolo[3,4-c]pyridin-1-yl)acetyl)-N-(6-bromo-5-fluoro-3-methylpyridin-2-yl)-5-methyl-2-azabicyclo[3.1.0]hexane-3-carboxamide]",> 6.00
16,"CC(=O)c1nn(CC(=O)N2[C@H](C(=O)Nc3nc(Br)ccc3C)C[C@@]3(C)C[C@@H]23)c2cnc(-c3cnc(C)[n+]([O-])c3)cc12 [Compound 200, 5-(3-acetyl-1-(2-((1R,3S,5R)-3-((6-bromo-3-methylpyridin-2-yl)carbamoyl)-5-methyl-2-azabicyclo[3.1.0]hexan-2-yl)-2-oxoethyl)-1H-pyrazolo[3,4-c]pyridin-5-yl)-2-methylpyrimidine 1-oxide]",> 6.00
17,"CC(=O)c1nn(CC(=O)N2[C@H](C(=O)Nc3nc(Br)ccc3C)C[C@@]3(Cn4cc(C5CC5)nn4)C[C@@H]23)c2ccc(-c3cnc(C)nc3)cc12 [Compound 201, (1R,3S,5R)-2-(2-(3-acetyl-5-(2-methylpyrimidin-5-yl)-1H-indazol-1-yl)acetyl)-N-(6-bromo-3-methylpyridin-2-yl)-5-((4-cyclopropyl-1H-1,2,3-triazol-1-yl)methyl)-2-azabicyclo[3.1.0]hexane-3-carboxamide]",> 6.00
18,"CC(=O)c1nn(CC(=O)N2[C@H](C(=O)Nc3nc(Br)ccc3C)C[C@@]3(Cn4cc([Si](C)(C)C)nn4)C[C@@H]23)c2ccc(-c3cnc(C)nc3)cc12 [Compound 202, (1R,3S,5R)-2-(2-(3-acetyl-5-(2-methylpyrimidin-5-yl)-1H-indazol-1-yl)acetyl)-N-(6-bromo-3-methylpyridin-2-yl)-5-((4-(trimethylsilyl)-1H-1,2,3-triazol-1-yl)methyl)-2-azabicyclo[3.1.0]hexane-3-carboxamide]",> 6.00
19,"CC(=O)c1nn(CC(=O)N2[C@H](C(=O)Nc3nc(Br)ccc3C)C[C@@]3(Cn4ccnn4)C[C@@H]23)c2ccc(-c3cnc(C)nc3)cc12 [Compound 203, (1R,3S,5R)-5-((1H-1,2,3-triazol-1-yl)methyl)-2-(2-(3-acetyl-5-(2-methylpyrimidin-5-yl)-1H-indazol-1-yl)acetyl)-N-(6-bromo-3-methylpyridin-2-yl)-2-azabicyclo[3.1.0]hexane-3-carboxamide]",> 6.00
20,CC(=O)c1nn(CC(=O)N2[C@H](C(=O)Nc3nc(Br)ccc3CN3CC4(COC4)C3)C[C@@]3(C)C[C@@H]23)c2ccc(-c3cnc(C)nc3)cc12 [Compound 204],> 6.00
21,"CC(=O)c1nn(CC(=O)N2[C@H](C(=O)Nc3nc(Br)ccc3C)C[C@@]3(C)C[C@@H]23)c2c(C)nc(-c3cnc(C)nc3)cc12 [Compound 205, (1R,3S,5R)-2-(2-(3-acetyl-7-methyl-5-(2-methylpyrimidin-5-yl)-1H-pyrazolo[3,4-c]pyridin-1-yl)acetyl)-N-(6-bromo-3-methylpyridin-2-yl)-5-methyl-2-azabicyclo[3.1.0]hexane-3-carboxamide]",> 6.00
22,"CC(=O)c1nn(CC(=O)N2[C@H]3C[C@@]3(CN3C[C@H]4CCC[C@H]4C3)C[C@H]2C(=O)Nc2nc(Br)ccc2C)c2cnc(-c3cnc(C)nc3)cc12 [Compound 206, (1S,3S,5S)-2-(2-(3-acetyl-5-(2-methylpyrimidin-5-yl)-1H-pyrazolo[3,4-c]pyridin-1-yl)acetyl)-N-(6-bromo-3-methylpyridin-2-yl)-S-(((3aR,6a5)-hexahydrocyclopenta[c]pyrrol-2(1H)-yl)methyl)-2-azabicyclo[3.1.0]hexane-3-carboxamide]",> 6.00
